Here are results for 18 molecules from ChEMBL document CHEMBL1148635, “Discovery, structure-activity relationship, and pharmacological evaluation of (5-substituted-pyrrolidinyl-2-carbonyl)-2-cyanopyrrolidines as potent dipeptidyl peptidase IV inhibitors” (J Med Chem, 2006).

A short description of data set [1]: Half life in phosphate buffer at pH 7.4 at 37 degreeC. The format is ADME.
In data set [2] the target is T1, Dipeptidyl peptidase 4 (Homo sapiens, UniProt P27487). The data set can be described thus: Inhibition of human recombinant DPP4.
T1 sequence (P27487 whole entry): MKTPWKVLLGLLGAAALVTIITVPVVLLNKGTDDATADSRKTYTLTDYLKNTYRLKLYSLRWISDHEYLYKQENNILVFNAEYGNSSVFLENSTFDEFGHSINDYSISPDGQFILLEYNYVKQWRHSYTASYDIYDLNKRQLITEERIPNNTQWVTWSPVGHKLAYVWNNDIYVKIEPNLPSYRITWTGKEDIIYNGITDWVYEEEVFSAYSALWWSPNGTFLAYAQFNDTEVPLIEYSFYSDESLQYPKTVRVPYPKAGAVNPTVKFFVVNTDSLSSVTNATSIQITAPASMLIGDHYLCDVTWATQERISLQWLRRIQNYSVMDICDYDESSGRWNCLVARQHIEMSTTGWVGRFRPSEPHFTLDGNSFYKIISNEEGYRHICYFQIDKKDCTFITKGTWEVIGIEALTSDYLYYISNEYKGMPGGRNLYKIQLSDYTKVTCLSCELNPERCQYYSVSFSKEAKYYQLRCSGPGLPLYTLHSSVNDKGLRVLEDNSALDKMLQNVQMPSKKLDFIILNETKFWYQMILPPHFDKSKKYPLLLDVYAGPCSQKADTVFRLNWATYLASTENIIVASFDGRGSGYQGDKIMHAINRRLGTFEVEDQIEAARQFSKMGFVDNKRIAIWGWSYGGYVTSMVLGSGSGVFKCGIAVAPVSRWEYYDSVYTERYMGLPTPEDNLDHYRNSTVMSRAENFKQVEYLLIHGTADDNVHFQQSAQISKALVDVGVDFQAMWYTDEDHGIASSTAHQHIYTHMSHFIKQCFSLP
The target in data set [3] is T1, Dipeptidyl peptidase 4. The data set can be described thus: Inhibition of human recombinant DPP4 by tight-binding assay.
The target of data set [4] is T1, Dipeptidyl peptidase 4. The data set can be described thus: Inhibition of human recombinant DPP4 by tight-binding assay in presence of 10% rat plasma. The format is cell-free.
The nature of data set [5]: Oral bioavailability in Sprague-Dawley rat at 5 mg/kg. The format is ADME, organism-based. As to conditions: in vivo; call rule not given here.
Data set [6] in a line: Cmax in Sprague-Dawley rat at 5 mg/kg, po. The class given is ADME, organism-based. Also noted: dose 5 mg/kg, route oral. The settings on record: in vivo.
The nature of data set [7]: Half life in Sprague-Dawley rat at 5 mg/kg, po. The class given is ADME, organism-based. Also on record: dose 5 mg/kg, route oral. As to conditions: in vivo.
A short description of data set [8]: Plasma clearance in Sprague-Dawley rat at 5 mg/kg, iv. The format is ADME, organism-based. Also on record: dose 5 mg/kg, route intravenous.
Data set [9] can be described thus: Volume of distribution in Sprague-Dawley rat at 5 mg/kg. The format is ADME, organism-based. Also noted: dose 5 mg/kg. As to conditions: in vivo, read-out: Vdss.
Data set [10] relates to Rattus norvegicus. The data set can be described thus: AUC in Sprague-Dawley rat at 5 mg/kg, po. The class given is ADME, organism-based, Plasma. Also on record: dose 5 mg/kg, route oral. As to conditions: in vivo.
Data set [11] addresses T2, Prolyl endopeptidase (Homo sapiens, UniProt P48147).
T2 sequence (P48147 whole entry): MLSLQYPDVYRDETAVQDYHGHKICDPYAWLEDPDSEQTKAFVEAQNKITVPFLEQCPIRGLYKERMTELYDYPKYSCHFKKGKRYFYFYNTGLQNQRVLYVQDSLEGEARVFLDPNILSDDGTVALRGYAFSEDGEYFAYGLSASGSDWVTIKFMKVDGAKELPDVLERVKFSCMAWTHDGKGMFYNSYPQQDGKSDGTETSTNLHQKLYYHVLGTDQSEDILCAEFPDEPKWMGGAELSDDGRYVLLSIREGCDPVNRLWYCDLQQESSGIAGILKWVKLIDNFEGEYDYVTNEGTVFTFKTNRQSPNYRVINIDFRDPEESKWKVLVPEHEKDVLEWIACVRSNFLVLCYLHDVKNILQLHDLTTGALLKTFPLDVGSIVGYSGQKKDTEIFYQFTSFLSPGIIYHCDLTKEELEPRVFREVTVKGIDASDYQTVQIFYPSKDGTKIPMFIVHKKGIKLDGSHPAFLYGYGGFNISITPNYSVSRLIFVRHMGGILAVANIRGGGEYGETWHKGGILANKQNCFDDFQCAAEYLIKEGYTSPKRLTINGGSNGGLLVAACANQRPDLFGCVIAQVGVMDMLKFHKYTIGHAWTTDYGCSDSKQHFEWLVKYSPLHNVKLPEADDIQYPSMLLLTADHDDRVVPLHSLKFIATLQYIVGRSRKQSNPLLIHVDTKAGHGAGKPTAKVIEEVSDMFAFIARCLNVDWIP
The data set can be described thus: Inhibition of POP by tight-binding assay.

The target in data set [12] is Dipeptidyl peptidase 2 (Homo sapiens, UniProt Q9UHL4). The data set can be described thus: Inhibition of DPP7 by tight-binding assay.
Data set [13] deals with Rattus norvegicus. The data set can be described thus: Lowering of blood glucose level in ZDF rat at 1 mg/kg, po by oral glucose tolerance test. The class given is functional.
For data set [14], the system named is Rattus norvegicus. The data set can be described thus: Lowering of blood glucose level in ZDF rat at 0.1 mg/kg, po by oral glucose tolerance test. The format is functional.
The test system of data set [15] is Rattus norvegicus. The data set can be described thus: Lowering of blood glucose level in ZDF rat at 3 mg/kg, po by oral glucose tolerance test. The format is functional.

Bounds are passed on as bounds.

By half-life is commonly meant the time in which the quantity being followed falls by half. Low readings indicate rapid decline, high ones slow decline. Regarding `CC[C@H]1CC[C@@H](C(=O)N2CCC[C@H]2C#N)N1`, the half-life in [1] was 16.4 h.
For orientation: Ki means the equilibrium dissociation constant of an inhibitor or competing ligand from its target. For the molecule `N#C[C@@H]1CCCN1C(=O)[C@@H]1CC[C@H](COc2ccccc2Cc2ccccc2)N1`, the Ki was > 3000 nM in data set [2], “Not Active” in [3] and “Not Active” in data set [4].
As a reminder, the bioavailability is dose-corrected exposure relative to a reference, in per cent. By Cmax is commonly meant the maximum level reached in the sampled fluid or tissue. What is called clearance is a measure of how efficiently the substance is removed, as volume per time. A higher clearance goes with efficient removal. One may read the AUC as concentration integrated over time. Low readings indicate low exposure, high ones high exposure. `N#Cc1ccc(OC[C@H]2CC[C@@H](C(=O)N3CCC[C@H]3C#N)N2)c(Cl)c1` came in with a bioavailability in [5] of 39%. In [6], this molecule came in with a Cmax of 4540 ng/mL. Further, the half-life in data set [1] is 16.7 h; in data set [7] it was 1.5 h. Also, in data set [8], the clearance is 10.5 mL/min/kg. Moreover, in data set [9], the Vd came to 0.2 L/kg. In [10], this molecule had an AUC of 3140 ng·h/mL.
Molecule `CC(C)(C)c1ccccc1OC[C@H]1CC[C@@H](C(=O)N2CCC[C@H]2C#N)N1` had a bioavailability in [5] of 3%. Moreover, the highest level in data set [6] (Cmax) was 25.2 ng/mL. The half-life was 41.2 h in [1] and 1.3 h in [7]. The clearance in data set [8] is 85 mL/min/kg. For the same molecule, in data set [9], the Vd came to 1.14 L/kg. Also, the AUC in data set [10] was found to be 28 ng·h/mL.
Consider `C[C@H]1CC[C@@H](C(=O)N2CCC[C@H]2C#N)N1`, for which the bioavailability in data set [5] came out at 58%. In data set [6], this molecule yielded a Cmax of 752 ng/mL. Further, the results for the half-life in data set [1] and in [7] were 6.5 h and 1.1 h, respectively. The molecule further showed a clearance in data set [8] of 74.8 mL/min/kg. The Vd in data set [9] came to 13.5 L/kg. This molecule also had an AUC in [10] of 652 ng·h/mL.
With `N#C[C@@H]1CCCN1C(=O)[C@@H]1CC[C@H](COc2cc(C(=O)O)cnc2Cl)N1`, the bioavailability in [5] came to 2%. The same molecule had a Cmax in [6] of 29 ng/mL. Moreover, the Ki is 666 nM in data set [11] and > 3000 nM in [12]. The molecule further gave a half-life in [7] of 1.2 h. In addition, the clearance in data set [8] is 16 mL/min/kg. In [9], the Vd was determined as 0.35 L/kg. This molecule also returned an AUC in [10] of 87 ng·h/mL.
`N#C[C@@H]1CCCN1C(=O)[C@@H]1CC[C@H](COc2ccccc2Cl)N1`: the Ki in data set [11] stood at 2760 nM.
Molecule `N#C[C@@H]1CCCN1C(=O)[C@@H]1CC[C@H](COc2ccc3ccccc3c2)N1` showed a half-life in [1] of 10.8 h.
For `N#C[C@@H]1CCCN1C(=O)[C@@H]1CC[C@H](COc2cc([N+](=O)[O-])c(Cl)cc2Cl)N1`, in data set [5], the bioavailability was 13.5%. The molecule further gave a Cmax in [6] of 805 ng/mL. This molecule showed a half-life in data set [7] of 3.6 h. This molecule showed a clearance in data set [8] of 3.83 mL/min/kg. In addition, in data set [9], the Vd is 0.22 L/kg. The same molecule yielded an exposure (AUC) in data set [10] of 2990 ng·h/mL.
In turn, `N#C[C@@H]1CCCN1C(=O)[C@@H]1CC[C@H](COc2ccc(C(=O)O)cc2Cl)N1` had a half-life in data set [1] of 19.8 h. In addition, the Ki in data set [11] amounted to 1740 nM.
In data set [1], `N#C[C@@H]1CCCN1C(=O)[C@@H]1CC[C@H](COc2ccc(Br)cc2)N1` had a half-life of 7.8 h.
Still for that read-out and setting: to `N#C[C@@H]1CCCN1C(=O)[C@@H]1CCCN1` belongs 1.3 h.
As to `CC(C)(C)c1cc(C(=O)O)ccc1OC[C@H]1CC[C@@H](C(=O)N2CCC[C@H]2C#N)N1`, in data set [5], the bioavailability was found to be 63%. In data set [6], this molecule returned a Cmax of 5580 ng/mL. For the same molecule, the values for the half-life in [1] and in data set [7] were 65.4 h and 4.2 h, respectively. The molecule also had a clearance in data set [8] of 5.33 mL/min/kg. Besides, the Vd in data set [9] was 1 L/kg. Also, the AUC in data set [10] was determined as 9630 ng·h/mL.
Consider `N#C[C@@H]1CCCN1C(=O)[C@@H]1CC[C@H](COc2cc(C(=O)O)c[n+]([O-])c2Cl)N1`, for which the Ki in [11] was 1530 nM; in data set [12] it was > 3000 nM.
With `CS(=O)(=O)c1ccc(OC[C@H]2CC[C@@H](C(=O)N3CCC[C@H]3C#N)N2)c(Br)c1`, in data set [5], the bioavailability amounted to 40%. This molecule also registered a Cmax in [6] of 3730 ng/mL. The half-life in [7] was 2.2 h. The clearance in data set [8] was 14 mL/min/kg. The Vd in data set [9] is 0.3 L/kg. In data set [10], the AUC is 2920 ng·h/mL.
In the case of `CC(C)c1cc(C(=O)O)ccc1OC[C@H]1CC[C@@H](C(=O)N2CCC[C@H]2C#N)N1`, the Activity in data set [13] was determined as 17%; in data set [14], 3%; in [15], 30%. The bioavailability in [5] was determined as 34%. The concentration in data set [6] peaked (Cmax) at 2470 ng/mL. Also, in data set [7], the half-life is 3.5 h. For the same molecule, the clearance in [8] was 7 mL/min/kg. Moreover, the Vd in data set [9] was determined as 0.73 L/kg. Also, in [12], the Ki was > 3000 nM. The molecule further registered an AUC in data set [10] of 4110 ng·h/mL.
With `CC(C)[C@H]1CC[C@@H](C(=O)N2CCC[C@H]2C#N)N1` (mixture of isomers), in data set [1], the half-life is > 100 h.
`N#C[C@@H]1CCCN1C(=O)[C@@H]1CC[C@H](COc2cc(C(=O)O)ccc2Cl)N1` (mixture of isomers): the bioavailability in data set [5] amounted to 7%. In addition, the Cmax in data set [6] came to 146 ng/mL. Moreover, the half-life in data set [1] was > 100 h; in [7], 6.9 h. The molecule further gave a clearance in data set [8] of 4.83 mL/min/kg. Also, the Vd in [9] is 0.35 L/kg. The Ki in data set [12] is > 3000 nM. The molecule further yielded an AUC in data set [10] of 1280 ng·h/mL.
